Measurements as given in patent publication US9206186B2, “2-phenoxy- and 2-phenylsulfonamide derivatives with CCR3 antagonistic activity for the treatment of inflammatory or immunological disorders” (AXIKIN PHARMACEUTICALS, INC., priority 2003, dated 2015).
pIC50: −log10 of the molar value. Where a name gives a salt, the structure may show the parent alone.

Assays:
Human CCR3 = molecular target: T1, Human CCR3 (Homo sapiens, UniProt P51677); experiment: Calcium mobilization assay (Ca2+), eotaxin-stimulated human CCR3-transformed K562 cells; format: cell-based; settings: compounds of about 40 to 90% purity, read-out: Activity grade IC50
T1 construct: The cloned CCR3 cDNA was constructed with pcDNA3 vector and transfected into a K562 cell line; expressed in transfected cells
T1 sequence (P51677 1-355): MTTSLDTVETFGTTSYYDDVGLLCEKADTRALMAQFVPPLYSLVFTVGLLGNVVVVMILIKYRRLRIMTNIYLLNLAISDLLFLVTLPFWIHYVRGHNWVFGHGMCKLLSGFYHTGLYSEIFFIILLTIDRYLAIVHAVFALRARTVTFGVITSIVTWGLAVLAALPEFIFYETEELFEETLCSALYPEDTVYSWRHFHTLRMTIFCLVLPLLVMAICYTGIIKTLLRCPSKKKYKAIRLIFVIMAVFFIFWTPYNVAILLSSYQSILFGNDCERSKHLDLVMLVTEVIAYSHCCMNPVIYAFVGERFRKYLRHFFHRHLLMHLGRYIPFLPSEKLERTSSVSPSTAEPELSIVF
Experimental: • Human CCR3-transformed K562 cells were used. The cloned CCR3 cDNA was constructed with pcDNA3 vector and transfected into a K562 cell line. The human CCR3-transformed K562 cells were maintained in RPMI-1640 (Cat.#22400-089, Life Technologies) supplemented with 10% FCS (Cat.#A-1115-L, Hyclone), 55 μM 2-mercaptoethanol (Cat.#21985-023, Life Technologies), 1 mM sodium pyruvate (Cat.#11360-070, Life Technologies), 100 units/ml of penicillin G and 100 μg/ml of streptomycin (Cat.#15140-122, Life Technologies), and 0.4 mg/ml of Geneticin (Cat.#10131-035, Life Technologies) (hereinafter called “culture medium”). Before the receptor binding assay, cells were pretreated with 5 mM sodium butyrate (Cat.#193-01522, Wako)-containing the culture medium (2×10^5 cells/ml) for 20-24 hours to increase the expression of CCR3. (2) Receptor Binding Assay • Butyrate-pretreated cells, suspended in binding buffer (25 mM HEPES pH 7.6, 1 mM CaCl2, 5 mM MgCl2, 0.5% BSA, 0.1% NaN3) at a cell density of 2×10^6 cells/ml, were added into 60 μl/well in the 96-well round bottom polypropylene plate (Cat.#3365, Costar). Compounds, diluted with the binding buffer (4-times higher concentration of the final concentration), were added into 30 μl/well in the polypropylene plate. [^125I]-labeled human eotaxin (Cat.#IM290, Amersham Pharmacia Biotech), diluted with the binding buffer at the concentration of 0.4 nM (final concentration; 0.1 nM), was added into 30 μl/well in the polypropylene plate. Total 120 μl/well of binding reaction mixture (60 μl/well of cell suspension, 30 μl/well of compound solution, and 30 μl/well of [^125I]-labeled eotaxin) were incubated in the polypropylene plate for 1 hour at room temperature after the incubation, 100 μl/well of the reaction mixture was transferred to a filtration plate (Cat.#MAFB-N0B, Millipore), and washed with the washing buffer (25 mM HEPES pH 7.6, 1 mM CaCl2, 5 mM MgCl2, 0.5% BSA, 0.1% NaN3, 0.5 M NaCl) twice. The 96-well filtration plate was pretreated with 100 μl/well of 0.5% polyethylenimine (Cat.#P-3143, Sigma) for 2-4 hours at room temperature and washed with the washing buffer twice before use. The non-specific binding was determined by parallel incubation in the presence of 500 nM of non-labeled eotaxin (Cat.#23209, Genzyme Techne). The radioactivities remained on the filter were measured by liquid scintillation counter (TopCount™, Packard) after an addition of 45 μl/well of scintillant (Microscint20, Cat.#6013621, Packard). The inhibition percent at each concentration of compound was calculated, and IC50 values were determined from the inhibition curve. [Determination of IC50 Values of Compounds in Calcium Mobilization Assay] (1) Cell • Human CCR3-transformed K562 cells were used. The human CCR3-transformed K562 cells were maintained in RPMI-1640 supplemented with 10% FCS, 55 μM 2-mercaptoethanol (Cat.#21985-023, Life Technologies), 1 mM sodium pyruvate, 100 units/ml of penicillin G and 100 μg/ml of streptomycin, and 0.4 mg/ml of Geneticin. Before the calcium mobilization assay, cells were pretreated with 5 mM sodium butyrate-containing the culture medium (2×10^5 cells/ml) for 20-24 hours to increase the expression of CCR3. (2) Calcium Mobilization Assay • Butyrate-pretreated cells were loaded with Fluo-3AM (Cat.#F-1242, Molecular Probes) in loading buffer (Hanks' solution Cat.#05906 Nissui, 20 mM HEPES pH 7.6, 0.1% BSA, 1 mM probenecid Cat.#P-8761 Sigma, 1 μM Fluo-3AM, 0.01% pluronic F-127 Cat.#P-6866 Molecular Probes) at a cell density of 1×10^7 cells/ml. Then, cells were washed with calcium assay buffer (Hanks' solution Cat.#05906 Nissui, 20 mM HEPES pH 7.6, 0.1% BSA, 1 mM Probenecid Cat.#P-8761 Sigma). The cell suspension (3.3×10^6 cells/ml) was added into 60 μl/well in the 96-well clear bottom black plate (Cat.#3904, Costar). Compounds, diluted (5-times concentration of the final concentration) with the calcium assay buffer, were added into 20 μl/well in the plate 10 minutes before assay. […]

melting point	pIC50 (Human CCR3)	Compound
220 to 226 °C (dec.)	–	N#Cc1ccc(Oc2cc(Cl)cc(Cl)c2)c(S(=O)(=O)C2CCNCC2)c1 (as salt: hydrochloride) [Example 2-1, 4-(3,5-Dichloro-phenoxy)-3-(piperidine-4-sulfonyl)-benzonitrile]
256 °C	–	O=[N+]([O-])c1ccc(Sc2cc(Cl)cc(Cl)c2)c(S(=O)(=O)N[C@H]2CN3CCC2CC3)c1 (stereo in doubt)
153 to 154 °C	6.30 to 7.00	N#Cc1ccc(Oc2cc(Cl)cc(Cl)c2)c(S(=O)(=O)N2CC[C@H](N(CCO)CCO)C2)c1 [Example 1-15]
165 to 182 °C (dec.)	< 6.30	N#Cc1ccc(Oc2cc(Cl)cc(Cl)c2)c(S(=O)(=O)N[C@@H]2CC3OC3C[C@@H]2N)c1 (stereo partly drawn) [Example 1-17]
–	6.30 to 7.00	N#Cc1ccc(Oc2cc(Cl)cc(Cl)c2)c(S(=O)(=O)N2CC[C@H](N3C[C@H](O)[C@@H](O)C3)C2)c1 [Example 1-18]
–	< 6.30	N#Cc1ccc(Oc2cc(Cl)cc(Cl)c2)c(S(=O)(=O)N[C@@H]2C[C@H](O)[C@@H](O)C[C@@H]2N)c1 [Example 1-19]
240 to 241 °C	< 6.30	Cl.Cl.N#Cc1ccc(Oc2cc(Cl)cc(Cl)c2)c(S(=O)(=O)N2CCNC(CN)C2)c1 (stereo not drawn) [Example 1-20]
–	6.30 to 7.00	CN(C)CCN(C)CCN(C)S(=O)(=O)c1cc(C#N)ccc1Oc1cc(Cl)cc(Cl)c1 [Example 1-23]
172 to 173 °C	6.30 to 7.00	N#Cc1ccc(Oc2cc(Cl)cc(Cl)c2)c(S(=O)(=O)NC2CCCCNC2=O)c1 (stereo not drawn) [Example 1-24]
–	6.30 to 7.00	COC(=O)C1CN(C2CCNCC2)CCCN1S(=O)(=O)c1cc(C#N)ccc1Oc1cc(Cl)cc(Cl)c1 (stereo not drawn) [Example 1-25]
–	< 6.30	O=S(=O)(c1cc(-n2cnnn2)ccc1Oc1cc(Cl)cc(Cl)c1)N1CCNCC1 [Example 1-30]
190 °C	< 6.30	CN(C)CC(NS(=O)(=O)c1cc(C#N)ccc1Oc1cc(Cl)cc(Cl)c1)C(=O)O (stereo not drawn) [Example 1-40]
–	< 6.30	N#Cc1ccc(Oc2cc(Cl)cc(Cl)c2)c(S(=O)(=O)NC2CN(Cc3ccccc3)CCN(Cc3ccccc3)C2)c1 [Example 1-41]
220 to 226 °C (dec.)	–	Cl.N#Cc1ccc(Oc2cc(Cl)cc(Cl)c2)c(S(=O)(=O)C2CCNCC2)c1 [Example 1-47]

Compound	melting point	pIC50 (Human CCR3)
CC(C)(C)[Si](C)(C)O[C@H]1CN(C2CCN(S(=O)(=O)c3cc(C#N)ccc3Oc3cc(Cl)cc(Cl)c3)CC2)C[C@@H]1O [Example 1-14]	–	6.30 to 7.00
N#Cc1ccc(Oc2cc(Cl)cc(Cl)c2)c(S(=O)(=O)N(CCN2C(=O)CCC2=O)[C@H]2CN3CCC2CC3)c1 [Example 1-38]	–	< 6.30
